These are literature values, as cited in US20220119489A1, “COMPOSITIONS AND METHODS FOR TREATING MUSCULAR DYSTROPHY AND RELATED DISORDERS” (CHILDREN'S MEDICAL CENTER CORPORATION, priority 2019, published 2022).

For data set [1], the system named is CD82. To be noted: stated as previously shown, no test described.
Data set [2] has as its system CD82. To be noted: Pompe disease patients under treatment.

For `CC(=O)C(=O)[O-].[Na+]` [sodium pyruvate], the “expression of CD82” value in the data set with CD82 [1] is “increase expression of CD82”.

Regarding “recombinant human lysosomal acid alpha glucosidase: recombinant enzyme used to treat Pompe disease patients”, the “increase of muscle CD82 expression compared to baseline levels” value with CD82 [2] is 25-50%. Consider `C[C@]12COC(=O)C[C@@H]1CC[C@@H]1[C@@H]2CC[C@@]2(C)[C@H]1CC[C@]2(C)O` [oxandrolone], for which, in the data set with CD82 [1], the “expression of CD82” value is reported as “increase expression of CD82”.
